Legend:
Format in all cases: biochemical
[1] = molecular target: T1, LOC100003999 (zebrafish EEVS, DrEEVS) (Danio rerio, UniProt A0ACD6B5C7); test: product detection by TLC; GC-MS with cell-free extract; conditions: 4 mM SH7P, 1 mM NAD+, 0.1 mM CoCl2 or ZnSO4, 20 mM Tris-HCl pH 7.5, 30 °C, 2 h
T1 construct: N-terminal His6 tag (pRSET-B), codon-optimised synthetic gene, expressed in E. coli BL21 GOLD (DE3) pLysS, Ni-NTA purified

ValA (ShEEVS) = molecular target: T2, ValA (ShEEVS) (Streptomyces hygroscopicus, UniProt H2K887); test: TLC and GC-MS of product; conditions: positive control enzyme; 4 mM SH7P, 1 mM NAD+, 0.1 mM CoCl2 or ZnSO4, 20 mM Tris-HCl pH 7.5, 30 °C, 2 h
T2 construct: N-terminal His6 tag (pRSETB-valA), expressed in E. coli BL21 GOLD (DE3) pLysS, Ni-NTA purified
T2 sequence (H2K887 whole entry): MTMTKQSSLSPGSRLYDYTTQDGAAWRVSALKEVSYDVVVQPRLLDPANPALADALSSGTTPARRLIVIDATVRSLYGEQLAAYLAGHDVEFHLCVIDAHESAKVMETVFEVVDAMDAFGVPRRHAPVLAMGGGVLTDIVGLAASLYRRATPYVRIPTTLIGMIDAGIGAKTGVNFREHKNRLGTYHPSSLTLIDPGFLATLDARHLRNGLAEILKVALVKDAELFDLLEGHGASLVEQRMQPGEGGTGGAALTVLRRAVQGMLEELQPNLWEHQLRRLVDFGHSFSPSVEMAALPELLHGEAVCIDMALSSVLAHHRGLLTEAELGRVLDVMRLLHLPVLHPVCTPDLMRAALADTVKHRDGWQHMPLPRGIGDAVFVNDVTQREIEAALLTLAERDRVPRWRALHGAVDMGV

[2] = molecular target: T1, LOC100003999 (zebrafish EEVS, DrEEVS); test: TLC; GC-MS of silylated product against authentic EEV (cell-free extract); conditions: 4 mM SH7P, 1 mM NAD+, 0.1 mM CoCl2 or ZnSO4, pH 7.5, 30 °C
MT-Ox (zgc:113054) [3] = molecular target: T3, MT-Ox (zgc:113054) (Danio rerio, UniProt A0ACM8Q6W2); test: product (gadusol) detection by (-)-ESI-MS; conditions: SAM and NAD+ present; 30 °C
T3 construct: gene wu:fd55e12; bifunctional full-length protein (N-terminal SAM methyltransferase domain, C-terminal NAD+ oxidoreductase domain), N-terminal His6 tag (pRSET-B), codon-optimised, E. coli, Ni-NTA purified
T3 sequence (A0ACM8Q6W2 1-551): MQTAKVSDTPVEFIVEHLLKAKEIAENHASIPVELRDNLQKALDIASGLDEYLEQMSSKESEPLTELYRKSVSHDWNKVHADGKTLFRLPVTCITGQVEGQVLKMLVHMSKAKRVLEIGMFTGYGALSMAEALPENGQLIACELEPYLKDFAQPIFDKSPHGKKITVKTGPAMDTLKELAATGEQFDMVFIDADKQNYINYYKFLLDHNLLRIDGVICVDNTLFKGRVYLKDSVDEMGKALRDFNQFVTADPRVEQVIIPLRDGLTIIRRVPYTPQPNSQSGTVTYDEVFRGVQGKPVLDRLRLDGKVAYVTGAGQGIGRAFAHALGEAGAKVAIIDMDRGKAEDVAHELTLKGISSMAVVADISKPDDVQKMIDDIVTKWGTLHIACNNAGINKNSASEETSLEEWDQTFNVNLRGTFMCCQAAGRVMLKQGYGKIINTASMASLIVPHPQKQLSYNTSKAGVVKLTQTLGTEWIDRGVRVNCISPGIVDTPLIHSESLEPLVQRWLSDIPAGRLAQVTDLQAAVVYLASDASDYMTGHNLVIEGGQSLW

MT-Ox (zgc:113054) [4] = molecular target: T3, MT-Ox (zgc:113054); test: product (gadusol) detection by HPLC-UV and (-)-ESI-MS; conditions: methyl donor, 5 mM; NAD+ 2 mM, CoCl2 0.2 mM, phosphate pH 7.4, 30 °C

T1 sequence (A0ACD6B5C7 1-470): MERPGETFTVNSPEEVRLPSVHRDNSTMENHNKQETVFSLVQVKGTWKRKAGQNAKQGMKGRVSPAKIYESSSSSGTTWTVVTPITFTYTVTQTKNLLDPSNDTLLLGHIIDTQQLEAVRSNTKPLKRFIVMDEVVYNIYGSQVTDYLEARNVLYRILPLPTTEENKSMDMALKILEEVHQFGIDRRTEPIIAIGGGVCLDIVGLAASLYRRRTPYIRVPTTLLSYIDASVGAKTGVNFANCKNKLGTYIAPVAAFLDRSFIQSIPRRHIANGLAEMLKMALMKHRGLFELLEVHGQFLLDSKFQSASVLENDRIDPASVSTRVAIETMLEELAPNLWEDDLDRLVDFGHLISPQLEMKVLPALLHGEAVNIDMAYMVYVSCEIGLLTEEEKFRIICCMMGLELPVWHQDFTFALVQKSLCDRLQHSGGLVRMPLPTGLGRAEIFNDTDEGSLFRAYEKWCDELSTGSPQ

| SMILES | product detection by TLC; GC-MS with cell-free extract [1] | TLC and GC-MS of product (ValA (ShEEVS)) | TLC; GC-MS of silylated product against authentic EEV (cell-free extract) [2] | product (gadusol) detection by (-)-ESI-MS (MT-Ox (zgc:113054) [3]) | product (gadusol) detection by HPLC-UV and (-)-ESI-MS (MT-Ox (zgc:113054) [4]) |
| --- | --- | --- | --- | --- | --- |
| O=P(O)(O)OC[C@@H](O)[C@H]1OC(O)(CO)[C@@H](O)[C@@H]1O (stereo partly drawn) [sedoheptulose 7-phosphate] | Incubation of the recombinant protein with SH7P gave a product | ValA (instead of LOC100003999) was used as a positive control |  |  |  |
| O=C1C[C@@](O)(CO)[C@@H](O)[C@H](O)[C@@H]1O [2-epi-5-epi-valiolone] |  | TLC analysis of enzymatic products of purified ValA and purified LOC100003999 | confirmed by thin-layer chromatography (TLC) and GC-MS to be EEV | Synthetic EEV incubated with purified MT-Ox |  |
| C[S+](CC[C@H](N)C(=O)O)C[C@H]1O[C@@H](n2cnc3c(N)ncnc32)[C@H](O)[C@@H]1O (stereo partly drawn) [S-adenosylmethionine] |  |  |  |  | incubated with EEV in the presence of SAM and NAD^+ |

Reference: PMC4426668, “De novo synthesis of a sunscreen compound in vertebrates” (eLife, 2015)
